Key:
[1] = system: A549 cell line (lung); assay: Cytotoxic activity: inhibition of cell proliferation, residual ATP by luminescence (ATPLite); type: cell-based; details: Homo sapiens, 72 hours of incubation
Method: (§1) Cytotoxic activity of the compounds prepared according to the invention was evaluated by measuring inhibition of cell proliferation of tumoral cell lines of human origin, such as the A549 cell line (lung) and the Namalwa cell line (lymphoma). This activity is expressed by IC50, the concentration of the tested product capable of inhibiting cell proliferation by 50%. The method used is a measurement of residual ATP by luminescence after 72 hours of incubation by using the “ATPLite” kit marketed by Perkin Elmer.

[2] = system: Namalwa cell line (lymphoma); assay: as above; type: cell-based; details: Homo sapiens, 72 hours of incubation
Method: as §1

SMILES | IC50 [1] | IC50 [2]
C[C@@H]1CC[C@H]2C(CSCC3=C(C(F)(F)F)O[C@@H]4O[C@@]5(C)CCC6[C@H](C)CC[C@@H]3[C@]64OO5)=C(C(F)(F)F)O[C@@H]3OC4(C)CCC1[C@]32OO4 (stereo partly shown) [Compound 1] | 200 nM | 290 nM
C[C@@H]1CC[C@H]2C(C[S+]([O-])CC3=C(C(F)(F)F)O[C@@H]4O[C@@]5(C)CCC6[C@H](C)CC[C@@H]3[C@]64OO5)=C(C(F)(F)F)O[C@@H]3OC4(C)CCC1[C@]32OO4 (stereo partly shown) [Compound 2] | 850 nM | 1000 nM
C[C@@H]1CC[C@H]2C(CS(=O)(=O)CC3=C(C(F)(F)F)O[C@@H]4O[C@@]5(C)CCC6[C@H](C)CC[C@@H]3[C@]64OO5)=C(C(F)(F)F)O[C@@H]3OC4(C)CCC1[C@]32OO4 (stereo partly shown) [Compound 3] | 1200 nM | 2300 nM
C[C@@H]1CC[C@H]2C(CSSCC3=C(C(F)(F)F)O[C@@H]4O[C@@]5(C)CCC6[C@H](C)CC[C@@H]3[C@]64OO5)=C(C(F)(F)F)O[C@@H]3OC4(C)CCC1[C@]32OO4 (stereo partly shown) [Compound 4] | 84 nM | 64 nM
C[C@@H]1CC[C@H]2C(COCCSSCCOCC3=C(C(F)(F)F)O[C@@H]4O[C@@]5(C)CCC6[C@H](C)CC[C@@H]3[C@]64OO5)=C(C(F)(F)F)O[C@@H]3OC4(C)CCC1[C@]32OO4 (stereo partly shown) [Compound 5] | 90 nM | 50 nM
C[C@@H]1CC[C@H]2C(CSCCSCC3=C(C(F)(F)F)O[C@@H]4O[C@@]5(C)CCC6[C@H](C)CC[C@@H]3[C@]64OO5)=C(C(F)(F)F)O[C@@H]3OC4(C)CCC1[C@]32OO4 (stereo partly shown) [Compound 6] | 63 nM | 27 nM
C[C@@H]1CC[C@H]2C(CSCCCSCC3=C(C(F)(F)F)O[C@@H]4O[C@@]5(C)CCC6[C@H](C)CC[C@@H]3[C@]64OO5)=C(C(F)(F)F)O[C@@H]3OC4(C)CCC1[C@]32OO4 (stereo partly shown) [Compound 7] | 150 nM | 100 nM
C[C@@H]1CC[C@H]2C(CSCCCCSCC3=C(C(F)(F)F)O[C@@H]4O[C@@]5(C)CCC6[C@H](C)CC[C@@H]3[C@]64OO5)=C(C(F)(F)F)O[C@@H]3OC4(C)CCC1[C@]32OO4 (stereo partly shown) [Compound 8] | 270 nM | 64 nM
C[C@@H]1CC[C@H]2C(COCCSCC3=C(C(F)(F)F)O[C@@H]4O[C@@]5(C)CCC6[C@H](C)CC[C@@H]3[C@]64OO5)=C(C(F)(F)F)O[C@@H]3OC4(C)CCC1[C@]32OO4 (stereo partly shown) [Compound 9] | 31 nM | 24 nM
C[C@@H]1CC[C@H]2C(CN(C)CCN(C)CC3=C(C(F)(F)F)O[C@@H]4O[C@@]5(C)CCC6[C@H](C)CC[C@@H]3[C@]64OO5)=C(C(F)(F)F)O[C@@H]3OC4(C)CCC1[C@]32OO4 (stereo partly shown) [Compound 11] | 1100 nM | 790 nM
C[C@@H]1CC[C@H]2C(CN(C)CCCN(C)CC3=C(C(F)(F)F)O[C@@H]4O[C@@]5(C)CCC6[C@H](C)CC[C@@H]3[C@]64OO5)=C(C(F)(F)F)O[C@@H]3OC4(C)CCC1[C@]32OO4 (stereo partly shown) [Compound 12] | 690 nM | 390 nM
C[C@@H]1CC[C@H]2C(COC(=O)c3cccc(C(=O)OCC4=C(C(F)(F)F)O[C@@H]5O[C@@]6(C)CC[C@H]7[C@H](C)CC[C@@H]4[C@@]57OO6)n3)=C(C(F)(F)F)O[C@@H]3O[C@@]4(C)CC[C@@H]1[C@]32OO4 [Compound 25] | 140 nM | 62 nM
C[C@@H]1CC[C@H]2C(COC(=O)c3cccc(C(=O)OCC4=C(C(F)(F)F)O[C@@H]5O[C@@]6(C)CC[C@H]7[C@H](C)CC[C@@H]4[C@@]57OO6)c3)=C(C(F)(F)F)O[C@@H]3O[C@@]4(C)CC[C@@H]1[C@]32OO4 [Compound 26] | 71 nM | 54 nM
C[C@@H]1CC[C@H]2C(COC(=O)c3ccc(C(=O)OCC4=C(C(F)(F)F)O[C@@H]5O[C@@]6(C)CC[C@H]7[C@H](C)CC[C@@H]4[C@@]57OO6)s3)=C(C(F)(F)F)O[C@@H]3O[C@@]4(C)CC[C@@H]1[C@]32OO4 [Compound 27] | 210 nM | 130 nM
C[C@@H]1CC[C@H]2C(CNC(=O)c3cccc(C(=O)NCC4=C(C(F)(F)F)O[C@@H]5O[C@@]6(C)CC[C@H]7[C@H](C)CC[C@@H]4[C@@]57OO6)n3)=C(C(F)(F)F)O[C@@H]3O[C@@]4(C)CC[C@@H]1[C@]32OO4 [Compound 30] | 170 nM | 72 nM
C[C@@H]1CC[C@H]2C(CNC(=O)c3ccc(C(=O)NCC4=C(C(F)(F)F)O[C@@H]5O[C@@]6(C)CC[C@H]7[C@H](C)CC[C@@H]4[C@@]57OO6)s3)=C(C(F)(F)F)O[C@@H]3O[C@@]4(C)CC[C@@H]1[C@]32OO4 [Compound 31] | 220 nM | 88 nM
C[C@@H]1CC[C@H]2C(COCc3cnnn3CC3=C(C(F)(F)F)O[C@@H]4O[C@@]5(C)CC[C@@]6(C)[C@H](C)CC[C@@H]3[C@@]46OO5)=C(C(F)(F)F)O[C@@H]3O[C@@]4(C)CC[C@@H]1[C@]32OO4 [Compound 32] | 270 nM | 130 nM
C[C@@H]1CC[C@H]2C(COCc3cn(CC4=C(C(F)(F)F)O[C@@H]5O[C@]6(C)CC[C@H]7[C@H](C)CC[C@@H]4[C@@]57OO6)nn3)=C(C(F)(F)F)O[C@@H]3O[C@@]4(C)CC[C@@H]1[C@]32OO4 [Compound 33] | 110 nM | 30 nM
C[C@@H]1CC[C@H]2C(COCc3cccc(COCC4=C(C(F)(F)F)O[C@@H]5O[C@@]6(C)CC[C@H]7[C@H](C)CC[C@@H]4[C@@]57OO6)n3)=C(C(F)(F)F)O[C@@H]3O[C@@]4(C)CC[C@@H]1[C@]32OO4 [Compound 37] | 74 nM | 30 nM
C[C@@H]1CC[C@H]2C(COCC#CC(O)C3=C(C(F)(F)F)O[C@@H]4O[C@@]5(C)CC[C@H]6[C@H](C)CC[C@@H]3[C@@]46OO5)=C(C(F)(F)F)O[C@@H]3O[C@@]4(C)CC[C@@H]1[C@]32OO4 (stereo partly shown) [Compound 39] | 240 nM | 160 nM

Source: patent publication US8236850B2, “Dimeric derivatives of artemisinin and application in anticancer therapy” (Pierre Fabre Medicament, priority 2007, dated 2012)
